Source: patent US9102637B2, “Bicyclic thiazole compounds” (CARNA BIOSCIENCES INC., priority 2013, dated 2015)

Biological target: human TNIK (N-terminal segment, TNIK_N, residues 1-314) (Homo sapiens (Human), UniProt Q9UKE5)
Assay: TNIK kinase assay (mobility shift)
Assay type: biochemical
Conditions: TNIK_N kinase activity, 25 μM ATP, 1 h at room temperature
Excerpt: Preparation of Recombinant Human TNIK (N-Terminal Segment):
A cDNA encoding the N-terminal segment (TNIK_N, residues 1-314) containing the kinase domain of human TNIK (NM_015028.1) was amplified from cDNA mixture synthesized from human tissue (Biochain) by PCR using the following primers.
The cDNA was subcloned into baculovirus transfer vector pFastBac_GSTb that includes protease cleavage site and glutathione S-transferase purification tag (GST-tag). The plasmid was purified and the insertion of the pFastBac_GSTb-TNIK_N was confirmed by DNA sequencing. Then E. coli DH10Bac competent cells were transformed with the plasmid to prepare the recombinant bacmid according to the instructions for the Bac-to-Bac™ baculovirus expression systems (Invitrogen). The Sf9 cells were transfected with the recombinant bacmid containing pFastBac_GSTb-TNIK_N using Cellfectin Reagent (Invitrogen) in SF-9001I serum free media (Invitrogen). The viral supernatant was collected from the medium 72 h after transfection. The virus was amplified three times by infecting actively growing Sf9 or Sf21 cells in Grace's insect media (Invitrogen) supplemented with 10% FCS and an antibiotic-antimycotic reagent (Invitrogen) for 72 h at 27° C. in T-flask or roller bottles. The titer of amplified TNIK_N virus was estimated at 2.36×10^8 pfu/ml by using BacPAK™ Baculovirus Rapid Titer kit (Clontech).
Log-phase Sf21 cells (2×10^6 cells/ml) in the Grace's insect media were infected with the recombinant baculovirus at MOI of 3.0 and incubated in roller bottles (250 ml media per bottle) for 72 h at 27° C., after which, the cells were collected by centrifugation, and the cell pellet washed with cold PBS and kept at −80° C. until purification. The following purification procedures were carried out at 4° C. The frozen cells were thawed on ice and lysed in lysis buffer (50 mM Tris-HCl, pH 7.5, 150 mM NaCl, 1% Nonidet P-40, 5 mM DTT, 0.5 mM EDTA, 0.5 mM EGTA) supplemented with 1 mM phenylmethansulfonylfluoride, 2 μg/ml leupeptin, 2 μg/ml aprotinin, 1 mM NaF, 100 μM sodium orthovanadate, and 1 μM cantharidin by sonication. The suspended lysate was cleared by centrifugation at 9000g for 20 min and the supernatant was incubated for 1 h with glutathione Sepharose beads (GE Healthcare). The beads were suspended in buffer-H (50 mM Tris-HCl, pH 7.5, 1 M NaCl, 1 mM DTT, 0.5 mM EDTA, 0.5 mM EGTA and 0.05% Brij35) and washed with buffer-H followed by buffer-L (50 mM Tris-HCl, pH 7.5, 150 mM NaCl, 1 mM DTT, 0.5 mM EDTA, 0.5 mM EGTA, 0.05% Brij35) in an Econo-pack column (BIO-RAD). The bound TNIK_N was eluted with elution buffer (50 mM Tris-HCl, pH 8.0, 150 mM NaCl, 1 mM DTT, 10% glycerol, 0.5 mM EDTA, 0.5 mM EGTA and 5 mM reduced glutathione). The eluted fractions were collected and determined the protein concentration by Bradford reagent (BIO-RAD). The TNIKN fractions were pooled and desalted using 10DG column (BIORAD) equilibrated with the storage buffer (50 mM Tris-HCl, pH 7.5, 150 mM NaCl, 1 mM DTT, 10% glycerol, 0.05% Brij35). The purified TNIKN was characterized by electrophoresis using 4-20% polyacrylamide gels and matrix-assisted laser desorption/ionization reflection time-of-flight (MALDI-TOF) mass spectrometry on a Voyager-DE RP MALDI/TOF (Applied Biosystems). TNIK_N was confirmed by the molecular weight and. MASCOT Peptide Mass Fingerprint.
The kinase assays were conducted in a 20 μl volume using 384-well plates (Greiner). The reaction mixture consists of compound or vehicle (1% DMSO), 0.08 ng/μl TNIK_N, 1 μM FITC-labeled substrate peptides, including E-aminocaproic acid and 7 amino acids (described as SEQ ID NO.3 in “Kinase assay of TEST EXAMPLE 1” of WO 2010/064111(P.31)), 20 mM Hepes, pH 7.5, 0.01% Triton X-100, 5 mM MgCl2, 25 μM ATP and 2 mM DTT. As blank, TNIK N was excluded from the reaction mixture of vehicle (1% DMSO). […]

Sequence of human TNIK (N-terminal segment, TNIK_N, residues 1-314) (Q9UKE5 1-314): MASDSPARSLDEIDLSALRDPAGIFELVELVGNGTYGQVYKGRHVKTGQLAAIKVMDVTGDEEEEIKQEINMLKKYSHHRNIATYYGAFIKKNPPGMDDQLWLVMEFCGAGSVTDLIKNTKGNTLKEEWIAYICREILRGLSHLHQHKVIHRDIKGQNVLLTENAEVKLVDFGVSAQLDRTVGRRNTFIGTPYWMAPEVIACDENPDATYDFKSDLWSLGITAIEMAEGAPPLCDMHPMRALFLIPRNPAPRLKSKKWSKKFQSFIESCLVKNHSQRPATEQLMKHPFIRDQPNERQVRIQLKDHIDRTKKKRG

SMILES	IC50 [µM]
CC(=O)Nc1ccc(C(=O)Nc2sc(Nc3cccc4ccccc34)nc2C(N)=O)cc1 [Example 1, 5-(4-acetamidobenzamido)-2-(naphthalen-1-ylamino)thiazole-4-carboxamide]	0.0247
COc1ccc(C(=O)Nc2sc(Nc3ccc4ncccc4c3)nc2C(N)=O)cc1 [Example 4, 5-(4-methoxybenzamido)-2-(quinolin-6-ylamino) thiazole-4-carboxamide]	0.0215
Cc1ccc(C(=O)Nc2sc(Nc3ccc4ccccc4c3)nc2C(N)=O)cc1N [Example 9, 5-(3-amino-4-methylbenzamido)-2-(naphthalen-2-ylamino)thiazole-4-carboxamide]	0.0272
CN(CCO)c1ccc(C(=O)Nc2sc(Nc3ccc4ccccc4c3)nc2C(N)=O)cc1 [Example 29, 5-{4-[(2-hydroxyethyl)methylamino]benzamido}-2-(naphthalen-2-ylamino)thiazole-4-carboxamide]	0.0274
CC(O)CNc1ccc(C(=O)Nc2sc(Nc3ccc4ccccc4c3)nc2C(N)=O)cc1 (centres unmarked) [Example 30, 5-{4-[(2-hydroxypropyl)amino]benzamido}-2-(naphthalen-2-ylamino)thiazole-4-carboxamide]	0.0107
NC(=O)c1nc(Nc2ccc3ccccc3c2)sc1NC(=O)c1ccc[nH]1 [Example 33, 2-(naphthalen-2-ylamino)-5-(1H-pyrrole-2-carbox-amido)thiazole-4-carboxamide]	0.0075
NC(=O)c1nc(Nc2cccc3ncccc23)sc1NC(=O)c1ccsc1 [Example 40, 2-(quinolin-5-ylamino)-5-(thiophene-3-carbox-amido)thiazole-4-carboxamide]	0.0094
CN(c1ccc2ncccc2c1)c1nc(C(N)=O)c(NC(=O)c2csc(CN3CCOCC3)c2)s1 [Example 51]	0.0057
CN1CCN(Cc2cc(C(=O)Nc3sc(Nc4cccc5ncccc45)nc3C(N)=O)cs2)CC1 [Example 56, 5-{5-[(4-methylpiperazin-1-yl)methyl]thiophene-3-carboxamido}-2-(quinolin-5-ylamino)thiazole-4-carboxamide]	0.0082
NC(=O)c1nc(Nc2ccc3cc(CO)ccc3c2)sc1NC(=O)c1ccsc1 [Example 70, 2-{[6-(hydroxymethyl)naphthalen-2-yl]amino}-5-(thiophene-3-carboxamido)thiazole-4-carbox-amide]	0.0055
COc1cc(Nc2nc(C(N)=O)c(NC(=O)c3ccsc3)s2)cc2ccccc12 [Example 74, 2-[(4-methoxynaphthalen-2-yl)amino]-5-(thio-phene-3-carboxamido)thiazole-4-carboxamide]	0.0513
NC(=O)c1nc(Nc2ccc3ccc(F)cc3c2)sc1NC(=O)c1ccsc1 [Example 80, 2-[(7-fluoronaphthalen-2-yl)amino]-5-(thiophene-3-carboxamido)thiazole-4-carboxamide]	0.0169
NC(=O)c1nc(Nc2ccc3ccccc3c2)sc1NC(=O)CCCCCN1CCOCC1 [Example 92, 5-(6-morpholinohexanamido)-2-(naphthalen-2-ylamino)thiazole-4-carboxamide]	0.0202
NC(=O)c1nc(Nc2ccc3ccccc3c2)sc1NC(=O)C1CC1 [Example 93, 5-(cyclopropanecarboxamido)-2-(naphthalen-2-yl-amino)thiazole-4-carboxamide]	0.015
COc1ccc2cc(Nc3nc(C(N)=O)c(NC(=O)c4ccc(NCCO)cc4)s3)ccc2c1 [Example 113, 5-{4-[(2-hydroxyethyl)amino]benzamido}-2-[(6-methoxynaphthalen-2-yl)amino]thiazole-4-carbox-amide]	0.0148
NC(=O)c1nc(Nc2ccc3ccccc3c2)sc1NC(=O)c1ccc(CCO)cc1 [Example 116, 5-[4-(2-hydroxyethyl)benzamido]-2-(naphthalen-2-ylamino)thiazole-4-carboxamide]	0.0058
NC(=O)c1nc(Nc2ccc3ccccc3c2)sc1NC(=O)c1ccc(NCCO)c(N)c1 [Example 121, 5-{3-amino-4-[(2-hydroxyethyl)amino]benzamido}-2-(naphthalen-2-ylamino)thiazole-4-carbox-amide]	0.0244
NC(=O)c1nc(Nc2ccc3ccc(F)cc3c2)sc1NC(=O)C1CC1 [Example 122, 5-(cyclopropanecarboxamido)-2-[(7-fluoro-naphthalen-2-yl)amino]thiazole-4-carboxamide]	0.0128
NC(=O)c1nc(Nc2ccc3ccc(F)cc3c2)sc1NC(=O)c1ccc(NCCO)cc1 [Example 124, 2-[(7-fluoronaphthalen-2-yl)amino]-5-{4-[(2-hydroxyethyl)amino]benzamido}thiazole-4-carbox-amide]	0.0129
CC(C)=CC(=O)Nc1sc(Nc2ccc3ccc(F)cc3c2)nc1C(N)=O [Example 128, 2-[(7-fluoronaphthalen-2-yl)amino]-5-(3-methyl-but-2-enamido)thiazole-4-carboxamide]	0.0072
NC(=O)c1nc(Nc2ccc3ccc(F)cc3c2)sc1NC(=O)CCCCCN1CCOCC1 [Example 130, 2-[(7-fluoronaphthalen-2-yl)amino]-5-(6-morpho-linohexanamido)thiazole-4-carboxamide]	0.0195
COc1ccc2cc(Nc3nc(C(N)=O)c(NC(=O)c4ccc(N)cc4)s3)ccc2c1 [Example 136, 5-(4-aminobenzamido)-2-[(6-methoxynaphthalen-2-yl)amino]thiazole-4-carboxamide]	0.0097
COc1ccc2cc(Nc3nc(C(N)=O)c(NC(=O)C=C(C)C)s3)ccc2c1 [Example 137, 2-[(6-methoxynaphthalen-2-yl)amino]-5-(3-meth-ylbut-2-enamido)thiazole-4-carboxamide]	0.0152
NC(=O)c1nc(Nc2ccc3cc(CO)ccc3c2)sc1NC(=O)C1CC1 [Example 138, 5-(cyclopropanecarboxamido)-2-{[6-(hydroxy-methyl)naphthalen-2-yl]amino}thiazole-4-carbox-amide]	0.0058
CC(C)=CC(=O)Nc1sc(Nc2ccc3cc(CO)ccc3c2)nc1C(N)=O [Example 139, 2-{[6-(hydroxymethyl)naphthalen-2-yl]amino}-5-(3-methylbut-2-enamido)thiazole-4-carboxamide]	0.0016
C[C@H](O)CNc1ccc(C(=O)Nc2sc(Nc3ccc4ccccc4c3)nc2C(N)=O)cc1 [Example 146, (S)-5-{4-[(2-hydroxypropyl)amino]benzamido}-2-(naphthalen-2-ylamino)thiazole-4-carboxamide]	0.0151
C[C@@H](O)CNc1ccc(C(=O)Nc2sc(Nc3ccc4ccccc4c3)nc2C(N)=O)cc1 [Example 147, (R)-5-{4-[(2-hydroxypropyl)amino]benzamido}-2-(naphthalen-2-ylamino)thiazole-4-carboxamide]	0.0168
Cc1ccc(C(=O)Nc2sc(Nc3ccc4cc(CO)ccc4c3)nc2C(N)=O)s1 [Example 151, 2-{[6-(hydroxymethyl)naphthalen-2-yl]amino}-5-(5-methylthiophene-2-carboxamido)thiazole-4-carboxamide]	0.0111
NC(=O)c1nc(Nc2ccc3ccccc3c2)sc1NC(=O)c1ccc(CNCCO)cc1 [Example 163, 5-(4-{[(2-hydroxyethyl)amino]methyl}benzamido)-2-(naphthalen-2-ylamino)thiazole-4-carboxamide]	0.0037
